This is an account of results in patent publication US6680342B2, “Methods and compositions for inhibiting the proliferation of prostate cancer cells” (priority 2001, dated 2004).

Molecules are shown by their SMILES.

One data set deals with Sp1. The data set is described as follows: Western blot of Sp1, LNCaP cells. Format: cell-based, human.
In data set [1] the test system is heat shock protein70 (Hsp70). Kind of data set: Western blot of heat shock protein70, LNCaP cells. Format: cell-based, human.
Method: (§3) Both cell lines were propagated in 24-well, 60 or 100 mm culture dishes at the desired density in RPMI 1640 (Mediatech, Herndon, Va.) supplemented with 5% fetal calf serum (FCS) (Biofluids, Rockville, Md.) at 37° C. and 5% CO2 until reaching 50-70% confluence.
(§4) LNCaP or LAPC-4 cells were plated in 10 cm dishes at 9×10^5 cells per dish in RPMI 1640 and 5% FCS. […] Cells were harvested at designated times, and the whole cell lysate was prepared according to manufacturer's instructions (Santa Cruz, Santa Cruz, Calif.). […] Protein levels were measured with a BioRad DC protein assay (BioRad, Hercules, Calif.). Protein samples (20 μg) were loaded into precast 4-12% NuPage gels (Novex, San Diego, Calif.), run with MOPS buffer, and transferred onto a nitrocellulose membrane (BioRad) according to the manufacturer's instructions. A Ponceau S staining was performed for total protein staining and visualized with a digital camera. The membranes were blocked overnight at 4° C. in TBST (20 mM Tris-HCl (pH 8.0), 137 mM NaCl, and 0.1% Tween 20) and 5% dry milk. The membranes were washed 3 times for ten min each with TBST. Primary antibody for the androgen receptor (1:2,000 dilution) (Pharmingen, San Diego, Calif.), Sp1 (1:2,000 dilution) (Santa Cruz) or heat shock protein70 (Hsp70) (1:1,000 diultion) (StressGene Biotechnologies, Victoria, B.C.) was incubated at room temperature for 1 hr. […]
Data set [2] relates to PSA. The data set is described as follows: PSA protein in spent media, immunometric assay, LNCaP cells. Format: cell-based, human. Particulars: 5 days, with or without Mib, normalized by MTS. The protocol: (§1) LNCaP cells were seeded at 2×10^4 cells per well in 24 well plates. […] After a 5 day incubation, the spent media were harvested, and the levels of PSA and hK2 quantified by an immunometric assay as described previously (Hsieh et al., 1997, Cancer Res., 57:2651-6). MTS assays were performed (Promega, Madison, Wis.) as per the manufacturer's instructions. The protein levels of PSA and hK2 were normalized by cell density measurements with the MTS assay.

Data set [3] concerns PSA. The data set is described as follows: PSA protein in spent media, immunometric assay, LAPC-4 cells. Format: cell-based, human. Particulars: LAPC-4, 5 days, with or without Mib, normalized.
Data set [4] relates to hK2. Kind of data set: hK2 protein in spent media, immunometric assay, LNCaP cells. Format: cell-based, human. Particulars: 5 days, with or without Mib, normalized by MTS. Here is the method: as §1
For data set [5], the system named is hK2. The data set is described as follows: hK2 protein in spent media, immunometric assay, LAPC-4 cells. Format: cell-based, human. The settings on record: LAPC-4, 5 days, with or without Mib, normalized.
Data set [6] deals with PSA. The data set is described as follows: Northern blot of PSA mRNA, LNCaP cells. Format: cell-based, human. The settings on record: in the presence of androgen, 24 hrs. The protocol:
(§2) The films were autoradiographed at −70° C. overnight.

In another data set the test system is NKX3.1. The data set is described as follows: Northern blot of NKX3.1 mRNA, LNCaP cells. Format: cell-based, human. The settings on record: in the presence of androgen, 24 hrs. The protocol:
as §2

The subject of another data set is ODC. The data set is described as follows: Northern blot of ODC mRNA, LNCaP cells. Particulars: in the presence of androgen, 24 hrs. Format: cell-based, human. The protocol: as §2
A further data set deals with male and female rats. Particulars: approximately 40 to 1900 mg/kg/day; cited from earlier work.

Method for Sp1: as §3, §4

For the molecule `O=c1c(O)c(-c2ccc(O)c(O)c2)oc2cc(O)cc(O)c12` [quercetin, Quercetin], the Sp1 protein level entry in the data set with Sp1 is listed as “not affected”. For the same molecule, the Hsp70 protein level result in data set [1] is recorded as “not affected”. Besides, the PSA protein levels result in the data set with PSA [2] is “inhibits both PSA and hK2 protein levels in a dose-dependent manner”; in the data set with PSA [3], “inhibits both PSA and hK2 protein levels in a dose-dependent manner”. For the same molecule, the hK2 protein levels result was “inhibits both PSA and hK2 protein levels in a dose-dependent manner” in the data set on hK2 [4]; “inhibits both PSA and hK2 protein levels in a dose-dependent manner” in the data set on hK2 [5]. In addition, the “PSA mRNA levels” value in the data set with PSA [6] is recorded as “greatly reduced”. In addition, the “NKX3.1 mRNA levels” value in the data set on NKX3.1 is “greatly reduced”. The “ODC mRNA levels” value in the data set with ODC is “greatly reduced”. Also, the effects on survival entry in the data set on male and female rats is reported as “no treatment related effects on survival”.
